Test results taken from paper PMC5947712, “High‐Throughput Kinetic Analysis for Target‐Directed Covalent Ligand Discovery” (Angewandte Chemie (International Ed. in English), 2018).

Experiments:
[1] = molecular target: T1, Cdk2 (Homo sapiens, UniProt P24941); assay: In-cell target engagement: CuAAC biotin tagging, Neutravidin pulldown, anti-Cdk2 western blot; assay type: cell-based; conditions: HeLa cells, 6 hours treatment
T1 construct: endogenous in cells; host or cells: HeLa
Description: (§1) To evaluate whether this in vitro activity would translate into in‐cell target engagement, acrylamide 3 (REFCdk2(WT)=5.6, k GSH=0.033 h^−1, k Cdk2(WT)=0.185 h^−1) was synthesized as a target engagement probe, containing an alkyne handle for bio‐orthogonal ligation. HeLa cells were treated with probe 3 and protein lysates subjected to copper(I) catalyzed azide–alkyne cycloaddition (CuAAC)30 to affect biotin conjugation.
(§2) Figure 7 HeLa cells were treated with 3 for 6 hours. After tagging with biotin‐azide, Neutavidin pulldown was performed. Western blot analysis (anti‐Cdk2 and Cdk1) was performed before (Lysate) and after pulldown (PD).
(§3) 100Rfold! dilution! gave! the! optimum! seed! concentration! for! subsequent! crystallization.!Ligand" conjugated" Cdk2:!Crystallisation!
(§4) was! performed! by! mixing! 1! µL! of! labelled! Cdk2! solution! (8! mg! mLR1,! 100! mM! phosphate! buffer)! with! 0.5! µL! of! reservoir! soluR
(§5) tion! (Jeffamine! EDR2003! concentration! range! 18!R!30%! w/v,! 100! mM! HEPES,! pH! range! 7.5!–!8.5)! and! 0.5! µL! diluted! apoR
(§6) Cdk2(WT)!microseed!stock.!For!labelled!Cdk2(WT),!crystals!appeared!within!2–3!days!and!grew!for!another!10–14!days.!
(§7) L.,Molecular,dynamics,simulation, […]
(§8) maps!were!calculated!using!FFT[20]!and!figures!were!prepared!using!PyMol!(Schrödinger).! […]
(§9) Phosphorylation! of! […] Cdk2! during! gel! electrophoresis! and! the! reaction! was! monitored! by! […]

[2] = molecular target: T2, Cdk1 (Homo sapiens, UniProt P06493); assay: In-cell target engagement: CuAAC biotin tagging, Neutravidin pulldown, anti-Cdk1 western blot; assay type: cell-based; conditions: HeLa cells, 6 hours treatment
T2 construct: endogenous in cells; host or cells: HeLa
Description: as §1, §2, §3, §4, §5, §6, §7, §8, §9

[3] = qIT (quantitative irreversible tethering) thiol consumption assay with glutathione; conditions: compound 0.5 mM, glutathione 5 μM, TCEP-agarose 2 % w/v
Description: To measure the kinetics of electrophile‐thiol conjugation we developed quantitative irreversible tethering (qIT), a technique which employs fluorogenic thiol quantification (FTQ) in a high‐throughput thiol consumption assay (Figure 1 a). […] We solved this problem using an immobilized reducing agent (TCEP‐agarose, 2 % w/v), allowing facile separation by centrifugation before conducting the FTQ step (Figure 1 b).
The target thiol (5 μM) is reacted with electrophilic fragments (0.5 mM) under pseudo‐first‐order conditions in the presence of TCEP‐agarose (2 % w/v). Reaction progress is followed by discrete measurements of residual target thiol concentration using the fluorogenic probe CPM and rate constants are derived from exponential regression analysis. b) TCEP‐agarose prevents aerobic thiol oxidation. Glutathione solutions were stored ±TCEP‐agarose (2 % w/v).
Electrophiles were individually reacted with glutathione under pseudo‐first‐order conditions in the presence of TCEP‐agarose. […] Fluorescence measurements were normalized against a DMSO control and exponential regressions used to determine rate constants.
ReactionBplate" setup:!Each! well! of! a! 96Rwell! PCR! plate! was! charged! with! 60–100! µL! of! target! thiol! (GSH! or! protein,! 10! µM)!
and! 4%! w/v! TCEPRagarose! beads! in! 100! mM! phosphate! buffer! (pH! 7.5! or! 8)! and! cooled! to! 4! ˚C.! Reactions! were! started! by!
addition! of! an! equal! volume! of! preRcooled! electrophile! solution! (1! mM,! 2%! DMSO)! in! 0.1! M! phosphate! buffer! (final! concentraR
tion:! thiol! =! 5! µM,! electrophile! =! 0.5! mM,! 2%! w/v! TCEPRagarose! beads),! with! a! minimum! of! 4! wells! per! plate! used! as!
DMSO/thiol! only! controls.! After! mixing,! TCEPRagarose! was! pelleted! by! centrifugation! (1,300! rpm,! 1! min)! and! the! plate! incuR
bated!at!4!˚C.,CPM"Quench:! At! a! series! of! time! points!

[4] = molecular target: Cdk2(WT) (Homo sapiens, UniProt P24941); assay: qIT thiol consumption assay with Cdk2(WT) (Cys177); assay type: binding; set-up: made in house; host or cells: E. coli Tuner(DE3)

T2 sequence (P06493 whole entry): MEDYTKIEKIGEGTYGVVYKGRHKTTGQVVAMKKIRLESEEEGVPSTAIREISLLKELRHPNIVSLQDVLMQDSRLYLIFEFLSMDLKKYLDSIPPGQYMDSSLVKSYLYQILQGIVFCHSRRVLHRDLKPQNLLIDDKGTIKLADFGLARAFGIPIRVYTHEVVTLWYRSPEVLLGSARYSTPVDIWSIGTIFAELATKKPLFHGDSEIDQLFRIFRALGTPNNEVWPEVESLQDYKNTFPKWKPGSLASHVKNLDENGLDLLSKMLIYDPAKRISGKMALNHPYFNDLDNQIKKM

enrichment of Cdk2 after pull-down (western blot) [1]: concentration‐dependent enrichment
isolation of Cdk1 after pull-down (western blot) [2]: not isolated
k Cdk2(WT) (pseudo-first-order rate constant) ([4]; compound 0.5 mM, Cdk2(WT) 5 μM, TCEP-agarose 2 % w/v): 0.185 h⁻¹
REF Cdk2(WT) (rate enhancement factor = k protein/k GSH) ([4]; k Cdk2(WT)/k GSH): 5.6
Compound: C#CCNC(=O)N1CCN(C(=O)C=C)c2ccccc21 [Acrylamide 3]
k GSH (pseudo-first-order rate constant) [3]: 0.033 h⁻¹
